Results taken from patent US11298412B2, “Sphingoid compounds for prophylaxis and/or therapy of coronaviridae infection” (priority 2020, dated 2022).
“Also recorded” adds a separate entry of the source.

What was measured:
[1] = system: lymphocytic choriomeningitis virus (LCMV); format: cell-based, LCMV strain WE
[2] = system: rhinovirus strain RV2 (minor strain); assay: Rhinovirus RV2 infection of Hela cells, Trypan Blue cell death; format: cell-based; conditions: 10 μM and 20 μM, added 10 min before or 60 min or 240 min after infection, 4 days
[3] = system: RV1b; assay: Binding of sphingosine to RV1b immobilized on agarose beads, remaining sphingosine by kinase assay; set-up: species or system rhinovirus; conditions: 250 μM sphingosine in PBS pH 7.0; 4 hrs at 4° C.
Description: As a complement to the above study, RV1b (obtained from ATCC) were immobilized to agarose beads and tested for binding of sphingosine (SPH). To this end, we incubated 1 μg/ml anti-RV1b antibodies with 10^6 CFU RV1b for 1 h at 4° C. in H/S, added 50 μL agarose protein A/G beads (Santa Cruz Inc.), incubated for an additional 1 h at 4° C. and washed the immobilized precipitates 5-times in H/S. We resuspended the beads in 500 μL PBS (pH 7.0) containing 250 μM sphingosine. Samples were incubated for 4 hrs at 4° C., pelleted and aliquots of the supernatants were added to 50 mM HEPES (pH 7.4), 250 mM NaCl, 30 mM MgCl2, 0.001 units sphingosine kinase (R&D), 1 mM ATP and 10 μCi [^32P]γATP. The kinase reaction was performed for 1 hr at 30° C., stopped by addition of 20 μl 1N HCl, 800 μl CHCl3/CH3OH/1N HCl (100:200:1, v/v/v), 240 μl CHCl3 and 2 M KCl. Phases were separated, the lower phase was collected, dried, dissolved in 20 μL of CHCl3:CH3OH (1:1, v/v) and separated on Silica G60 thin layer chromatography (TLC) plates using CHCl3/CH3OH/acetic acid/H2O (90:90:15:5, v/v/v/v). The TLC plates were exposed to radiography films, spots were removed from the plates, and the incorporation of [^32P] into sphingosine measured by liquid scintillation counting. Sphingosine was determined using a standard curve of C18-SPH. […]

[4] = system: pp-VSV-SARS-CoV-2 spike; format: cell-based
[5] = system: pp-VSV-SARS-CoV-2 spike; format: cell-based; remark: listed apart in the source
[6] = system: human nasal epithelial cells; assay: Toxicity on human nasal epithelial cells; conditions: as per the Vero cell studies
[7] = system: Hela cells; assay: Effect of sphingosine alone on Hela cells, Trypan Blue cell death; conditions: uninfected Hela cells; 10 μM or 20 μM

CCCCCCCCCCCCC/C=C/[C@@H](O)[C@@H](N)CO [sphingosine, (2S,3R,4E)-2-amino-4-octadecene-1,3-diol] was tested, and the “propagation of LCMV (infectious LCMV particles in the supernatant)” value [1] was “reduced propagation of LCMV; also recorded: inhibits the propagation of LCMV”, the “infection with RV2 (percentage of dead cells)” value [2] was “prevented the infection; also recorded: prevention of RSV2 and RSV14 infection” and the “binding of sphingosine to RV1b-coupled agarose beads (remaining sphingosine in the supernatant)” value [3] was “efficiently bind sphingosine”. For the same compound, the “effect on infection of Vero epithelial cells with pp-VSV-SARS-CoV-2” value [4] was “marked effect”, the “infection of Vero cells by SARS-CoV-2” value [4] was “prevents infection of Vero cells by SARS-CoV-2” and the “reduction of the infection of Vero epithelial cells with pp-VSV-SARS-CoV-2” value [4] was “more than 90%”. For the same compound, the “infection of human nasal epithelial cells with pp-VSV-SARS-CoV-2 spike (eGFP positive cells)” value [5] was “prevented infection; also recorded: prevents infection of freshly isolated human nasal endothelial cells by SARS-CoV-2”, the “toxic effects on nasal epithelial cells” value [6] was “no toxic effects on nasal epithelial cells; also recorded: without negative effects on the cells” and the “effect of sphingosine itself on the cells (percentage of dead cells)” value [7] was “no effect on the cells”.
